# Measurements from patent US10000489B2, “Compounds αvβ6 integrin antagonists” (GlaxoSmithKline Intellectual Property Development Limited, priority 2014, dated 2018).
# Counter-ions that a name gives are not always drawn. Like-named read-outs stand apart in the source and are kept apart here.
# Key:
# Type in all cases: cell-based
# αvβ8 = biological target: T1, αvβ8 (Homo sapiens, UniProt P06756+P26012); test: Cell adhesion assay, K562-αvβ8 (LAP-b1); conditions: read-out: αvβ8 pIC50 (converted)
# T1 construct: expressed in transfected cells; host or cells: K562
# Procedure: (§1) The following cell lines were used, with ligands in brackets: K562-αvβ3 (LAP-b1), K562-αvβ5 (Vitronectin), K562-αvβ6 (LAP-b1), K562-αvβ8 (LAP-b1), A549-αvβ1 (LAP-b1). The divalent cation used to facilitate adhesion was 2 mM MgCl2. Adhesion was quantified by cell labelling with the fluorescent dye BCECF-AM (Life Technologies), where cell suspensions at 3×10^6 cells/mL were incubated with 0.33 uL/mL of 30 mM BCECF-AM at 37° C. for 10 minutes, then 50 μL/well were dispensed into the 96-well assay plate. At the assay conclusion cells that adhered were lysed using 50 μL/well of 0.5% Triton X-100 in H2O to release fluorescence. Fluorescence intensity was detected using an Envision® plate reader (Perkin Elmer). For active antagonists in the assay, data were fitted to a 4 parameter logistic equation for IC50 determinations.
# Figures quoted are Mean pIC50 values.
# αvβ1 = biological target: T2, αvβ1 (Homo sapiens, UniProt P05556+P06756); test: Cell adhesion assay, A549-αvβ1 (LAP-b1)
# T2 construct: host or cells: A549
# Procedure: as §1
# Figures quoted are Mean pIC50 values.
# αvβ5 = biological target: T3, αvβ5 (Homo sapiens, UniProt P06756+P18084); test: Cell adhesion assay, K562-αvβ5 (Vitronectin); conditions: read-out: αvβ5 pIC50 (converted)
# T3 construct: expressed in transfected cells; host or cells: K562
# Procedure: as §1
# Figures quoted are Mean pIC50 values.
# αvβ6 = biological target: T4, αvβ6 (Homo sapiens, UniProt P06756+P18564); test: Cell adhesion assay, K562-αvβ6 (LAP-b1); conditions: read-out: αvβ6 pIC50 (converted)
# T4 construct: expressed in transfected cells; host or cells: K562
# Procedure: as §1
# Figures quoted are Mean pIC50 values.
# αvβ3 = biological target: T5, αvβ3 (Homo sapiens, UniProt P05106+P06756); test: Cell adhesion assay, K562-αvβ3 (LAP-b1); conditions: read-out: αvβ3 pIC50 (converted)
# T5 construct: expressed in transfected cells; host or cells: K562
# Procedure: as §1
# Figures quoted are Mean pIC50 values.
# [1] = cell adhesion, A549-αvβ1 cells, ligand LAP-b1, 2 mM MgCl2, mean pIC50
# T1 sequence (P06756 31-889 limits assumed): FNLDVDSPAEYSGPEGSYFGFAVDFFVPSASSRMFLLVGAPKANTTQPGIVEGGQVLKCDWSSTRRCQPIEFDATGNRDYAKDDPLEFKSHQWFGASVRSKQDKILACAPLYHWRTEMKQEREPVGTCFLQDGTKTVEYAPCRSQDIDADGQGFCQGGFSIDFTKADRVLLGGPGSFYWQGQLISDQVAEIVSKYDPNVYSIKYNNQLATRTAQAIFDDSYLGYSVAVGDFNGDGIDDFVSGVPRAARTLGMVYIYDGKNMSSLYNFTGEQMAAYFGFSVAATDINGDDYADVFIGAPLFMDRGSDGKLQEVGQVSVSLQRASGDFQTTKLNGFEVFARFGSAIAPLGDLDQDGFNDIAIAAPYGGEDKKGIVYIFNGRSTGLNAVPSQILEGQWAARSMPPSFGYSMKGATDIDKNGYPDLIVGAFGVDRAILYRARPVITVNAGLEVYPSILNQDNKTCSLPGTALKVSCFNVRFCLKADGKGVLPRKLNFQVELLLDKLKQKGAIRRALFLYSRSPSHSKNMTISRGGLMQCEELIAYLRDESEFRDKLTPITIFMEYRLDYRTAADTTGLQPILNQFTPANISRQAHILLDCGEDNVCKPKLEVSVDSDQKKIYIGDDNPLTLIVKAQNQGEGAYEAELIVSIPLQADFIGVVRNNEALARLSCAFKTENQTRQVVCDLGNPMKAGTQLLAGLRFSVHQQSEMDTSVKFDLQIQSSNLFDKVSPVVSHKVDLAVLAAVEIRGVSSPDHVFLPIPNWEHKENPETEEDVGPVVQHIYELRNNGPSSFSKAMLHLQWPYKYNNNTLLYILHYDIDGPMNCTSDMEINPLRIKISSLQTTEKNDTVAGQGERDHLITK
# T1 sequence (P06756 891-1048 partner limits assumed): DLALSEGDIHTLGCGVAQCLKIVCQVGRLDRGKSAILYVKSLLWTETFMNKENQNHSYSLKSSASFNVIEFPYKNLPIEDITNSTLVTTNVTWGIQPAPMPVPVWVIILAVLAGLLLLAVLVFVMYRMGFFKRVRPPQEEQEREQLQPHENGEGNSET
# T1 sequence (P26012 43-769): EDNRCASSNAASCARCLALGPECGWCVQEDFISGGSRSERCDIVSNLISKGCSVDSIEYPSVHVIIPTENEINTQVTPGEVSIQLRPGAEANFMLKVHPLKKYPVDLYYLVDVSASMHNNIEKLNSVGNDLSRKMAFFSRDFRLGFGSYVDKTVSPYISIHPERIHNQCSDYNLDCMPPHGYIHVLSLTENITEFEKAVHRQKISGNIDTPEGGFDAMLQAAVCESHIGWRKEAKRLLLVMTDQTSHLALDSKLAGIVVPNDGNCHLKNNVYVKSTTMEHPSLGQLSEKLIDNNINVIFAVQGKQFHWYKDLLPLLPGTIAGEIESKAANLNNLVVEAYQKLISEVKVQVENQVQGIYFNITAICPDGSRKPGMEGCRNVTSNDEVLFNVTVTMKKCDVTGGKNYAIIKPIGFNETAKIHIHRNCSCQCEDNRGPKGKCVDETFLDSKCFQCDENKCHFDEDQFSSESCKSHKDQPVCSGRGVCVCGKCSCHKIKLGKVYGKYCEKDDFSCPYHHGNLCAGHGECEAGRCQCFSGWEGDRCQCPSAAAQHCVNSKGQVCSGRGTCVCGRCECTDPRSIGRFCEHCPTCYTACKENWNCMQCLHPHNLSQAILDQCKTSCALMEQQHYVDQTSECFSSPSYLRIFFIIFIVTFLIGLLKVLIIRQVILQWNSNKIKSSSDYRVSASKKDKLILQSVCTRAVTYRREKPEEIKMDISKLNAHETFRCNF
# T2 sequence (P06756 31-889 limits assumed): as the sequence (P06756 31-889 limits assumed) above
# T2 sequence (P06756 891-1048 partner limits assumed): as the sequence (P06756 891-1048 partner limits assumed) above
# T2 sequence (P05556 21-798): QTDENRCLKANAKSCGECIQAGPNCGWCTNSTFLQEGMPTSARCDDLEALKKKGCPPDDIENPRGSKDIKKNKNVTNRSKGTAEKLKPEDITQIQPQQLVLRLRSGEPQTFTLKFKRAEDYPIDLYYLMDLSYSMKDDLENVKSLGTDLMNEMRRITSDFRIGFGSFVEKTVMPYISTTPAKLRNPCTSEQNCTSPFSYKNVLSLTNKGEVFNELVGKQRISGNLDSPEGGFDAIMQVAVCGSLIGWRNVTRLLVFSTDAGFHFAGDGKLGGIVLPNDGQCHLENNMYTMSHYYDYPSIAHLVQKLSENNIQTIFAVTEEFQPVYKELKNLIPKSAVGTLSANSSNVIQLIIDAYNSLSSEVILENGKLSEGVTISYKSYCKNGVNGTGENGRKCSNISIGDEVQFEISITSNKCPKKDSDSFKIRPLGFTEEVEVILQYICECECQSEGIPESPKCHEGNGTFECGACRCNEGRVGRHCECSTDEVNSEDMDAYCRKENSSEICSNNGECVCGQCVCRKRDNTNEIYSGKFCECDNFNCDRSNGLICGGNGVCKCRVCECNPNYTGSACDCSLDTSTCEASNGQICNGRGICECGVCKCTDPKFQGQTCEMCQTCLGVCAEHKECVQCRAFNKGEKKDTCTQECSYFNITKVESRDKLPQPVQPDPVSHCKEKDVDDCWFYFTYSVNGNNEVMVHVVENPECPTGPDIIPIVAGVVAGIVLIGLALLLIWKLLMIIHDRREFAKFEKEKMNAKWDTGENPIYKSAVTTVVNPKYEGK
# T4 sequence (P06756 31-889 limits assumed): as the sequence (P06756 31-889 limits assumed) above
# T4 sequence (P06756 891-1048 partner limits assumed): as the sequence (P06756 891-1048 partner limits assumed) above
# T4 sequence (P18564 22-788): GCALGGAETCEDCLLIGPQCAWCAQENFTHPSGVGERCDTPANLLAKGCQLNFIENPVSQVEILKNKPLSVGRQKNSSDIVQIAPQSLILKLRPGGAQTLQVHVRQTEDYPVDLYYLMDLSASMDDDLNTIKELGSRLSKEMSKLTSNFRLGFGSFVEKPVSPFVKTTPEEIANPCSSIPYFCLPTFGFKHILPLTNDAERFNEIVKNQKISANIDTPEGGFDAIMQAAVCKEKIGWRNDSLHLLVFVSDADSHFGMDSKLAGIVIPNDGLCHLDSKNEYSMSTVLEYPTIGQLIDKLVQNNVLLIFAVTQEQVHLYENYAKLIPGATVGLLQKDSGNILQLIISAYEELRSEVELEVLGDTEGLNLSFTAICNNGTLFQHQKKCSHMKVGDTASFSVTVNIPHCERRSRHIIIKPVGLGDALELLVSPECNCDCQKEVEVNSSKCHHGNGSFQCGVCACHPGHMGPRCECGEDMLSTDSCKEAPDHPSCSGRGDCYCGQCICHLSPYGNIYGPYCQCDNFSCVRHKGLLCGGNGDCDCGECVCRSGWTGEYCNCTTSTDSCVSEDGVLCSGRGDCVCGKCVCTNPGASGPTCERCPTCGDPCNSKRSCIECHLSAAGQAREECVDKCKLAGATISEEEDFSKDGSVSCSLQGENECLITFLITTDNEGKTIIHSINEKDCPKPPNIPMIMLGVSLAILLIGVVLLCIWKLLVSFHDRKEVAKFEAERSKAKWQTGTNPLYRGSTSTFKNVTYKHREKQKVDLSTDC
# T3 sequence (P06756 31-889 limits assumed): as the sequence (P06756 31-889 limits assumed) above
# T3 sequence (P06756 891-1048 partner limits assumed): as the sequence (P06756 891-1048 partner limits assumed) above
# T3 sequence (P18084 24-799): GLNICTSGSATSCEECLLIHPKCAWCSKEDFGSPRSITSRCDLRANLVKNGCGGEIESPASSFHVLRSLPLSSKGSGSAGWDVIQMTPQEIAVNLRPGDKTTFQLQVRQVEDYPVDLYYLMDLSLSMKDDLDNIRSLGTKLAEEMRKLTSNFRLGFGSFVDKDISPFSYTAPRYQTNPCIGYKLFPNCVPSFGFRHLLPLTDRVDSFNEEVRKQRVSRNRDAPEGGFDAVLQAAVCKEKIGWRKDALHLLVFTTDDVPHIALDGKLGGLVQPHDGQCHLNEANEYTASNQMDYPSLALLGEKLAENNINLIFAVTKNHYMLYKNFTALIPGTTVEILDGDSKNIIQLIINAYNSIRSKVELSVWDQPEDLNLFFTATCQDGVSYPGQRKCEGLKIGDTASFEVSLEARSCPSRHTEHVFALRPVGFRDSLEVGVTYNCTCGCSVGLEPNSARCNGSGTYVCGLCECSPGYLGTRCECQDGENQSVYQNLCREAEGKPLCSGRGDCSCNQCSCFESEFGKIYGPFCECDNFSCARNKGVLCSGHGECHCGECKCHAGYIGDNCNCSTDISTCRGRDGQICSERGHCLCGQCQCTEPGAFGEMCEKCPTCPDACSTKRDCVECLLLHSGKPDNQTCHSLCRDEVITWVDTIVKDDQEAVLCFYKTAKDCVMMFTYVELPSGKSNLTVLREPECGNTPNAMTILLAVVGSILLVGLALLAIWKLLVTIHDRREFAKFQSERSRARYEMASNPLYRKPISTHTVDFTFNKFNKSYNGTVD
IC50 (αvβ8) [nM],IC50 (αvβ1; [1]) [nM],IC50 (αvβ5) [nM],IC50 (αvβ6) [nM],IC50 (αvβ3) [nM],IC50 (αvβ1; read-out: αvβ1 pIC50 (converted)) [nM],Compound
25.1,,,,,,"O=C(O)C[C@H](CN1CC[C@](F)(CCc2ccc3c(n2)NCCC3)C1)c1cccc(N2CCOCC2)c1 [Example 2, (S)-4-(R)-(3-Fluoro-3-(2-(5,6,7,8-tetrahydro-1,8-naphthyridin-2-yl)ethyl)pyrrolidin-1-yl)-3-(3-morpholinophenyl)butanoic acid]"
,79.4,,,,,"O=C(O)C[C@H](CN1CC[C@@](F)(CCc2ccc3c(n2)NCCC3)C1)c1cccc(N2CCOCC2)c1 [Example 3, (S)-4-(S)-(3-Fluoro-3-(2-(5,6,7,8-tetrahydro-1,8-naphthyridin-2-yl)ethyl)pyrrolidin-1-yl)-3-morpholinophenyl)butanoic acid maleate salt]"
,100,,,,,"O=C(O)C[C@H](CN1CC[C@@](F)(CCc2ccc3c(n2)NCCC3)C1)c1cccc(N2CCOCC2)c1 [Example 4, (S)-4-(S)-(3-Fluoro-3-(2-(5,6,7,8-tetrahydro-1,8-naphthyridin-2-yl)ethyl)pyrrolidin-1-yl)-3-(3-morpholinophenyl)butanoic acid fumarate salt]"
25.1,,316,15.8,794,158,"O=C(O)C[C@H](CN1CC[C@@](F)(CCc2ccc3c(n2)NCCC3)C1)c1cc(N2CCOCC2)ccc1F [Example 5, (S)-4-((S)-3-Fluoro-3-(2-(5,6,7,8-tetrahydro-1,8-naphthyridin-2-yl)ethyl)pyrrolidin-1-yl)-3-(2-fluoro-5-morpholinophenyl)butanoic acid]"
79.4,,316,25.1,7940,,"O=C(O)CC(CN1CC[C@](F)(CCc2ccc3c(n2)NCCC3)C1)c1cc(N2CCOCC2)ccc1F (stereo partly drawn) [Example 9, 4-((R)-3-Fluoro-3-(2-(5,6,7,8-tetrahydro-1,8-naphthyridin-2-yl)ethyl)pyrrolidin-1-yl)-3-(2-fluoro-5-morpholinophenyl)butanoic acid]"
